Here are results for 2 compounds from patent publication US7662825B2, “N-pyrazinyl-phenylsulphonamides and their use in the treatment of chemokine mediated diseases” (AstraZeneca AB, priority 2002, dated 2010).

pIC50: −log10 of the molar value.

Data set [1] addresses T1, human recombinant CCR4 receptor (Homo sapiens, UniProt P51679).
T1 construct: host or cells: CHO-K1
T1 sequence (P51679 1-360): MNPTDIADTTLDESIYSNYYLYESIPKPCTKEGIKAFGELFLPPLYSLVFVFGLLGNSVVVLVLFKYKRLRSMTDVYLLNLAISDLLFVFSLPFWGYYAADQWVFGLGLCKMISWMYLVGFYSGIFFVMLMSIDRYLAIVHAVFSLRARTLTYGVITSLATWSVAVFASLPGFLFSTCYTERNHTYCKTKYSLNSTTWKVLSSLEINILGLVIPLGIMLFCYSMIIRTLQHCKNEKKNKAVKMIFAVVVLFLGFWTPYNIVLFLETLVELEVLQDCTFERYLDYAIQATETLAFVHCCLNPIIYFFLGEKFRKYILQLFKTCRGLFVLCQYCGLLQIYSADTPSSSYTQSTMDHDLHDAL
The data set is described as follows: FMAT whole cell binding assay (FB-MDC binding to cells). Particulars: CHO-K1 cells stably expressing human recombinant CCR4; inhibition of binding of fluorescent FB-MDC, two hours at room temperature. The protocol: FMAT Whole Cell Binding Assay
CHO—K1 cells stably expressing the human recombinant CCR4 receptor (Euroscreen; Brussels, Belgium) were cultured in NUT.MIX.F—12(HAM) medium with glutamax-1, containing 10% (v/v) foetal bovine serum and 400 μg ml^−1 geneticin.
Cells were harvested at approximately 70% confluence by treatment with a cell dissociation buffer, and seeded at 5×10^3 cells/100 μl culture medium into wells of a black Costar clear-bottomed 96-well microtitre plates. Plates were incubated overnight at 37° C. in 5% CO2 and used the following day.
Before use, the cell plates were washed twice with 100 μl Hanks balanced salt solution (HBSS). To each well was then added 65 μl of HBSS, 10 μL of 10% DMSO in HBSS±test compound and then 25 μL of 2.8 nM FB-MDC (Applied Biosystems). This fluorescent probe was prepared from a 10 μM stock in 0.08% (v/v) TFA/16% (v/v) acetonitrile, diluted into HBSS.
After two hours incubation in the dark at room temperature, the plates were analysed in an FMAT8100 reader (Applied Biosystems) to measure fluorescence that was associated with binding of FB-MDC to the cells.

Compound `COC(=O)c1nc(OC)c(NS(=O)(=O)c2cccc(Cl)c2Cl)nc1C` [Example 119, 5-(2,3-Dichlorobenzenesulphonylamino)-6-methoxy-3-methylpyrazine-2-carboxylic aicd, methyl ester] yielded a melting point of 149 to 150 °C. In addition, in data set [1], the pIC50 is 7.20.

As for `COc1nc(CN2CCOCC2)cnc1NS(=O)(=O)c1cccc(Cl)c1Cl` [Example 186, 2,3-Dichloro-N-[3-methoxy-5-(4-morpholinylmethyl)-2-pyrazinyl]benzenesulphonamide], the pIC50 in data set [1] is 6.20.
